Data from PubChem BioAssay AID1918998 (Molecular Pharmacology Branch, DTP, NCI, 2023).
Several values for one entry are separate records, joined by “and”; a condition that tells them apart may be missing. Equal values may be shown once.

System: 521955-158-R2-J5-PDC complex spheroid growth
Assay: Anticancer human tumor 521955-158-R2-J5-PDC patient-derived pancreatic carcinoma cell line growth inhibition [AhR]
Settings: for viability, T/C: stronger effect = lower value
Outline: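 Agents were dosed in half-log steps down from roughly clinical Cmax, or from 10 microM where Cmax was unknown, alone and with AhR antagonists. Read-out: percent test/control growth of tumor spheroids containing HUVEC and MSC stromal cells.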

[1] = curve of first compound, second compound 0.1 µM
[2] = curve of first compound, second compound 0.316 µM
[3] = curve of first compound, second compound 1 µM
[4] = curve of first compound, second compound 3.16 µM
[5] = curve of first compound, second compound 10 µM
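Throughout, for viability, T/C: spheroids mix tumor cells with HUVEC endothelium and human MSC stroma; luminescence taken as viability surrogate after a week of drug exposure.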

With `CCc1c2c(nc3ccc(O)cc13)-c1cc3c(c(=O)n1C2)COC(=O)[C@]3(O)CC` + Cc1cncc(-c2nc(NCCc3c[nH]c4ccccc34)c3ncn(C(C)C)c3n2)c1 the IC50 [1] was 4.04 nM, the IC50 [2] was 3.98 nM and the IC50 [3] was 4.17 nM. The IC50 [4] was 4.21 nM, the IC50 [5] was 3 nM and the viability, T/C (second compound 0.1 µM, first compound 0.000949 µM) was 78.5%. It also gave a viability, T/C (second compound 0.1 µM, first compound 0.003 µM) of 58.6%, a viability, T/C (second compound 0.1 µM, first compound 0.00949 µM) of 25.2% and a viability, T/C (second compound 0.1 µM, first compound 0.03 µM) of 16.5%. It also gave a viability, T/C (second compound 0.1 µM, first compound 0.0949 µM) of 14.9%, a viability, T/C (second compound 0.1 µM, first compound 0.3 µM) of 12.5% and a viability, T/C (second compound 0.316 µM, first compound 0.000949 µM) of 70.1%. For the same compound, the viability, T/C (second compound 0.316 µM, first compound 0.003 µM) was 57.8%, the viability, T/C (second compound 0.316 µM, first compound 0.00949 µM) was 26.5% and the viability, T/C (second compound 0.316 µM, first compound 0.03 µM) was 18%. It also gave a viability, T/C (second compound 0.316 µM, first compound 0.0949 µM) of 12.4%, a viability, T/C (second compound 0.316 µM, first compound 0.3 µM) of 12.3% and a viability, T/C (second compound 1 µM, first compound 0.000949 µM) of 90.1%. It also gave a viability, T/C (second compound 1 µM, first compound 0.003 µM) of 60%, a viability, T/C (second compound 1 µM, first compound 0.00949 µM) of 24.5% and a viability, T/C (second compound 1 µM, first compound 0.03 µM) of 21%. It also gave a viability, T/C (second compound 1 µM, first compound 0.0949 µM) of 16.4%, a viability, T/C (second compound 1 µM, first compound 0.3 µM) of 15.2% and a viability, T/C (second compound 3.16 µM, first compound 0.000949 µM) of 70.4%. The viability, T/C (second compound 3.16 µM, first compound 0.003 µM) was 58.7%, the viability, T/C (second compound 3.16 µM, first compound 0.00949 µM) was 29.7% and the viability, T/C (second compound 3.16 µM, first compound 0.03 µM) was 18.2%. It also gave a viability, T/C (second compound 3.16 µM, first compound 0.0949 µM) of 16.7%, a viability, T/C (second compound 3.16 µM, first compound 0.3 µM) of 10.5% and a viability, T/C (second compound 10 µM, first compound 0.000949 µM) of 98.9%. For the same compound, the viability, T/C (second compound 10 µM, first compound 0.003 µM) was 49.8%, the viability, T/C (second compound 10 µM, first compound 0.00949 µM) was 24.1% and the viability, T/C (second compound 10 µM, first compound 0.03 µM) was 15.3%. It also gave a viability, T/C (second compound 10 µM, first compound 0.0949 µM) of 8.29% and a viability, T/C (second compound 10 µM, first compound 0.3 µM) of 4.78%.

With `O=C(C=Cc1cccc(S(=O)(=O)Nc2ccccc2)c1)NO` the viability, T/C (compound 0.0316 µM) was 97.4% and 85.1% and 115%, the viability, T/C (compound 0.1 µM) was 95.1% and 99.1% and 103% and the viability, T/C (compound 0.316 µM) was 94.2% and 96.2% and 102%. For the same compound, the viability, T/C (compound 1 µM) was 88.4% and 104% and 69.3%, the viability, T/C (compound 3.16 µM) was 59.1% and 79.9% and 54.3% and the viability, T/C (compound 10 µM) was 40.5% and 52.5% and 24.2%. For the same compound, the IC50 (curve of compound) was 5550 nM and > 10000 nM and 3320 nM.

`O=C(C=Cc1cccc(S(=O)(=O)Nc2ccccc2)c1)NO` + Cc1cncc(-c2nc(NCCc3c[nH]c4ccccc34)c3ncn(C(C)C)c3n2)c1 was tested, and the IC50 [1] was 5890 nM, the IC50 [2] was 6860 nM and the IC50 [3] was > 10000 nM. The IC50 [4] was 6640 nM, the IC50 [5] was 1730 nM and the viability, T/C (second compound 0.1 µM, first compound 0.0316 µM) was 119%. For the same compound, the viability, T/C (second compound 0.1 µM, first compound 0.1 µM) was 115%, the viability, T/C (second compound 0.1 µM, first compound 0.316 µM) was 138% and the viability, T/C (second compound 0.1 µM, first compound 1 µM) was 93.6%. For the same compound, the viability, T/C (second compound 0.1 µM, first compound 3.16 µM) was 63.7%, the viability, T/C (second compound 0.1 µM, first compound 10 µM) was 39.8% and the viability, T/C (second compound 0.316 µM, first compound 0.0316 µM) was 131%. For the same compound, the viability, T/C (second compound 0.316 µM, first compound 0.1 µM) was 129%, the viability, T/C (second compound 0.316 µM, first compound 0.316 µM) was 125% and the viability, T/C (second compound 0.316 µM, first compound 1 µM) was 101%. For the same compound, the viability, T/C (second compound 0.316 µM, first compound 3.16 µM) was 66.5%, the viability, T/C (second compound 0.316 µM, first compound 10 µM) was 42% and the viability, T/C (second compound 1 µM, first compound 0.0316 µM) was 146%. For the same compound, the viability, T/C (second compound 1 µM, first compound 0.1 µM) was 132%, the viability, T/C (second compound 1 µM, first compound 0.316 µM) was 137% and the viability, T/C (second compound 1 µM, first compound 1 µM) was 108%. For the same compound, the viability, T/C (second compound 1 µM, first compound 3.16 µM) was 73.6%, the viability, T/C (second compound 1 µM, first compound 10 µM) was 51.4% and the viability, T/C (second compound 3.16 µM, first compound 0.0316 µM) was 135%. It also gave a viability, T/C (second compound 3.16 µM, first compound 0.1 µM) of 143%, a viability, T/C (second compound 3.16 µM, first compound 0.316 µM) of 147% and a viability, T/C (second compound 3.16 µM, first compound 1 µM) of 106%. For the same compound, the viability, T/C (second compound 3.16 µM, first compound 3.16 µM) was 61.3%, the viability, T/C (second compound 3.16 µM, first compound 10 µM) was 43.5% and the viability, T/C (second compound 10 µM, first compound 0.0316 µM) was 151%. It also gave a viability, T/C (second compound 10 µM, first compound 0.1 µM) of 112%, a viability, T/C (second compound 10 µM, first compound 0.316 µM) of 108% and a viability, T/C (second compound 10 µM, first compound 1 µM) of 69.2%. The viability, T/C (second compound 10 µM, first compound 3.16 µM) was 25.2% and the viability, T/C (second compound 10 µM, first compound 10 µM) was 5.33%.

`CC[C@@]1(O)C(=O)OCc2c1cc1n(c2=O)Cc2cc3c(CN(C)C)c(O)ccc3nc2-1` was tested, and the viability, T/C (compound 0.000316 µM) was 93.2% and 80.6% and 77.3%, the viability, T/C (compound 0.001 µM) was 90.4% and 95% and 67.7% and the viability, T/C (compound 0.00316 µM) was 80.1% and 84.2% and 84.3%. The viability, T/C (compound 0.01 µM) was 86.6% and 65.1% and 63.1%, the viability, T/C (compound 0.0316 µM) was 62.3% and 43.2% and 34.2% and the viability, T/C (compound 0.1 µM) was 33.1% and 22.1% and 23.6%. The IC50 (curve of compound) was 52.7 nM and 21.7 nM and 17.1 nM.

With `CC(C)c1c(-c2ccccc2)nc2c(C#N)c[nH]n2c1=O` the viability, T/C (compound 0.0316 µM) was 86.8% and 83.8% and 96.4%, the viability, T/C (compound 0.1 µM) was 103% and 100% and 89.5% and the viability, T/C (compound 0.316 µM) was 96.2% and 76.9% and 87.5%. The viability, T/C (compound 1 µM) was 85.3% and 75.7% and 64.5%, the viability, T/C (compound 3.16 µM) was 88.3% and 95.4% and 70.7% and the viability, T/C (compound 10 µM) was 83.1% and 71.7% and 86.4%. For the same compound, the IC50 (curve of compound) was > 10000 nM.

With `CC1(C)CCC(CN2CCN(c3ccc(C(=O)NS(=O)(=O)c4ccc(NCC5CCOCC5)c([N+](=O)[O-])c4)c(Oc4cnc5[nH]ccc5c4)c3)CC2)=C(c2ccc(Cl)cc2)C1` the viability, T/C (compound 0.0316 µM) was 96.5% and 101% and 99%, the viability, T/C (compound 0.1 µM) was 71.9% and 97.7% and 79.6% and the viability, T/C (compound 0.316 µM) was 105% and 111% and 106%. For the same compound, the viability, T/C (compound 1 µM) was 90.7% and 91% and 77.8%, the viability, T/C (compound 3.16 µM) was 96% and 87.3% and 90.5% and the viability, T/C (compound 10 µM) was 73.7% and 91.8% and 83.6%. For the same compound, the IC50 (curve of compound) was > 10000 nM.
